The data set concerns rat glioma (C6) tumor xenograft. Put plainly: Rat C6 glioblastoma subcutaneous tumor xenograft antitumor efficacy study. Format: in vivo, female athymic (nu/nu) nude mice. Conditions: for %TGI: analyzed at Day 18, P < 0.0001. As for the experimental part:
The rat C6 glioblastoma antitumor efficacy study was performed at INSERM U318 (Grenoble, France). The rat C6 glioblastoma subcutaneous tumor model is based on the use of a rat C6 cell line obtained from a rat glial tumor induced by N-nitrosomethylurea (Benda et al. (1968), Science, vol 161, 370-371). These animal studies were done according to ethical guidelines of animal experimentation (Charte du comité d'éthique du CNRS, 2003) and the English "Guidelines for the welfare of animals in experimental neoplasia (Second Edition)" from the United Kingdom Coordinating Committee on Cancer Research (UKCCCR) (Workman et al. (1998), Br. J. Cancer, vol 77, no 1, 1-10). On each dosing day, Formula I stock solutions (24 and 40 mg/mL in 20% ethanol, 20% PEG-400 and 60% Tween 80) were diluted with sterile 5% dextrose in water (D5W) to prepare dosing solutions of 6 mg/mL and 10 mg/mL of Formula I in a vehicle consisting of 5% ethanol, 5% PEG-400, 15% Tween-80, and 75% D5W.
For the rat glioma antitumor efficacy study, female athymic (nu/nu) nude mice (6-7 weeks of age) were inoculated SC with 5 x 10^6 C6 cells (day 0). Tumor bearing animals were randomized (10 per group) when tumors were palpable (day 6). Group 1 (control group) received drug-free vehicle (5% ethanol, 5% PEG-400, 15% Tween-80, and 75% D5W) IP (5 mL/kg), once daily on days 6-18 (q1d x 13). Group 2 received Formula I (6 mg/mL) IP at 20 mg/kg, once daily on days 6 to 13 and then at 10 mg/kg once daily on days 14 to 18. Group 3 received Formula I (6 mg/mL) SC at 30 mg/kg, once daily on days 6 to 13 and then at 15 mg/kg once daily on days 14 to 18. Group 4 received Formula I (10 mg/mL) IV at 100 mg/kg q1d x 5 for 2 weeks. Each animal was euthanized when its tumor reached the predetermined endpoint size (∼2,500 mm^3) or at the end of the study (D18). Treatment period was over 13 days, from day 6 to day 18, post tumor cell inoculation. Tumor growth inhibition (TGI) was calculated on day 16 post tumor cell inoculation, at which time some animals from the vehicle control group had to be sacrificed due to tumor burden.
In this model and the models of Examples 3, 6 and 7, tumor growth was followed every other day by measuring tumor length (L) and width (W) using a calliper. Measurements were converted to tumor volumes (TV; mm^3) using the standard formula, TV = (L xW^2)/2. Tumor volume at day n was expressed as relative tumor volume (RTV) according to the following formula RTV = TVn / TV0, where TVn is the tumor volume at day n and TV0 is the tumor volume at day 0. The percentage of tumor growth inhibition (%TGI) was determined by 1 ― (mean RTV of treated group/ mean RTV of control group) x 100. […] Statistical analysis was calculated by the two-tailed unpaired t test using the Prism software. Animals were weighed at least twice weekly during and after treatment until completion of the study. The mice were examined frequently for overt signs of any adverse drug-related side effects.
When the time to endpoint (TTE) for each mouse was also calculated by the following equation: TTE = (log10(endpoint volume)−b)/(m) [formula] Where TTE is expressed in days, endpoint volume is in mm^3, b is the intercept, and m is the slope of the line obtained by linear regression of a log-transformed tumor data set. This value was used to determined % tumor growth delay (%TGD), defined as the increase in median TTE for a treatment group compared to the control group expressed in days, or as a percentage of the median TTE of the control group.

The record followed here is EP1733758A1, “Methods for administration of a farnesyl dibenzodiazepinone” (Ecopia Biosciences Inc., priority 2005, dated 2006).

Consider `CC(C)=CCC/C(C)=C/CC/C(C)=C/CN1C(=O)c2cccc(O)c2Nc2c(O)cc(O)cc21` [Formula I, 10-farnesyl-4,6,8-trihydroxy-dibenzodiazepin-11-one], for which the “Maximum body weight loss” value was 15% (IP 20 mg/kg (Q1D x 8) followed by 10 mg/kg (Q1D x 7), Day 13) and 11% (SC 30 mg/kg (Q1D x 8) followed by 15 mg/kg (Q1D x 7)). In addition, the “difference in tumor volume relative to the vehicle control” value (IV bolus 100 mg/kg (Q1D x 5) over 2 weeks) is “No significant difference”. Further, the body weight loss entry (IV group, 100 mg/kg q1d x 5 for 2 weeks) is recorded as “No significant body weight loss”. The “%TGI” value was found to be 66% (daily bolus IP 20 then 10 mg/kg) and 60% (daily bolus SC 30 then 15 mg/kg).
